This is an account of results in patent US20230312577A1, “DUAL KINASE-BROMODOMAIN INHIBITORS” (MONASH UNIVERSITY, priority 2020, published 2023).

Series [1] deals with OPM2 cells. The experiment in a line: Cell proliferation assay (ViaLight, cellular ATP). Conditions: Homo sapiens, OPM-2, 120 h, 5 days, 5 μM to 1 nM. Type of series: cell-based. The essentials: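 1×10^3 cells per well exposed to compounds at final 5 μM to 1 nM for 5 days. Viability read as cellular ATP by ViaLight luminescence, technical triplicates. GI50 computed from the dose–response.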

The target of another series is T1, BRD2 (Homo sapiens, UniProt P25440).
T1 construct: endogenous in cells; host or cells: Ramos
The experiment in a line: Cellular thermal shift assay (CETSA) in Ramos cells. Format: cell-based. Conditions: 20 μM, 40 min, vs DMSO. The procedure: (§1) Ramos cells (human Burkitt lymphoma cell line) at 20×10^6 were washed in PBS followed by resuspension in 5 mL serum-free RPMI. They were treated either with Cpd 010 or DMSO at 20 μM for 40 min at 37° C. with 5% CO2. Cells were then collected, resuspended in PBS and separated into PCR tubes. They were heated at designated temperature for strictly 3 min followed by another 3 min at 25° C. on ABI Applied Biosystems 9902 Veriti PCR Thermal Cycler. Immediately, they were placed in liquid nitrogen for snap freezing. The samples were freeze-thawed until the final samples were place on ice. They were centrifuged and supernatants were collected. Loading dye was mixed and these were processed as per our Western Blot protocol (see above). The following primary antibodies were used; rabbit BRD4 (Cell Signaling, #13440), rabbit BRD2 (Cell Signaling, #5848), and mouse anti-β-actin (Sigma-Aldrich, clone AC-74).

A further series relates to MYC gene. In words: RT-qPCR in OPM2 cells. Type of series: cell-based, human. To be noted: 2 h. The procedure:
OPM2 cells (1×10^6) were treated with Cpd 010 or DMSO vehicle at indicated concentrations for 2 h. RNA was extracted from cell pellets using the PureLink™ RNA Mini Kit (ThermoFisher Scientific, #121839025) as per the manufacturer's instructions. cDNA was syn thesised with the SuperScript™ III cDNA synthesis kit (ThermoFisher Scientific, #18080093) according to the manufacturer's instructions. Quantitative PCR analysis of samples was per formed on the QuantStudio7 Flex RT-PCR system (ThermoFisher) with SYBR™ Master Mix (ThermoFisher Scientific, #4472903). L32 were used as the human control gene. Primer se quences were: Homo sapiens MYC F: […] R: […], Homo sapiens L32 F: […] R: TTGTGAGCGATCTCGGCAC. Each RT-qPCR am plification was performed in triplicate (technical triplicates) and repeated 2 times (biological replicates).

For series [2], the system named is OPM2 cells. In words: Synergy between PI3K and BET inhibitors, apoptosis assay (TMRE) and synergy score. Type of series: cell-based, human. As to the method:
An apoptosis assay using TMRE stain by flow cytometry was performed in OPM2 cells with indicated compounds. […] Using Synergyfinder web application (https://synergyfinder.fimm.fi), synergy score was calculated. Zero Interaction Potency (ZIP) reference models was utilised.

Series [3] is described as follows: In vivo assessment of maximum tolerated dose (MTD). An excerpt: The Peter MacCallum Cancer Centre Animal Ethics Committee approved all in vivo procedures in this study. B6.SJL-PtprcPepc/BoyJ (B6.CD45.1) mice were purchased from the Walter and Eliza Hall Institute (Melbourne, VIC). For enhanced solubility, Cpd 010 was reconstituted in double dose with 60% Hydroxypropyl-B-cyclodextrin (HPBCD; Cyclodextrin Technologies Development Inc.) and subsequently diluted with ultrafiltered water in 1:1 ratio prior to injection. Vehicle control was 60% HPBCD subsequently diluted 1:1 ratio with ultrafiltered water prior to injection for the final concentration of 30% HPBCD. MTD was carried out in 6-8 week old, non-tumour bearing female mice starting from 25 mg/kg of Cpd 010, 5 day intraperitoneal injection. Six mice received Cpd 010 and two mice received vehicle (30% HPBCD). Full Blood Examination (FBE), serum, spleen weight and morphological examination for toxicity were assessed on day 8 and day 15. In the absence of toxicity further dose escalation was carried out.

The test system of the next series is Eμ-Myc lymphoma cells. In words: In vivo therapeutic assessment, Eμ-Myc lymphoma transplant. Also on record: species or system mouse. To be noted: 45 mg/kg IP, 5 days per week, 3 weeks. As to the method: For transplantation of Eμ-Myc lymphomas in vivo, cohorts of 6-8 week old B6.SJL-PtprcPepc/BoyJ (B6.CD45.1) mice were inoculated via tail vein injection with 5×10^5 Eμ-Myc lymphoma cells (C57BL/6 (CD45.2)). Cpd 010 and vehicle controls (30% HPBCD) were prepared as above. Three days after lymphoma inoculation, intraperitoneal (IP) injection of compound 10 (45 mg/kg), or vehicle (30% HPBCD) was administered 5 days per week, for a total of 3-weeks of therapy. Detection of tumour cells on peripheral blood was carried out by flow cytometric analysis using the following antibodies; fixable Viability dye-AmCyan (Zom-bie Aqua™ Fixable Viability Kit, BioLegend), anti-mouse CD19-PE (ThermoFisher Scientific, #12-0193-82), anti-mouse CD45R (B220)-APC (ThermoFisher Scientific, #RA3-6B2), anti-mouse CD45.1-PerCP-Cy™5.5 (ThermoFisher Scientific, #A20), anti-mouse CD45.2-FITC (BioLegend, #104). Data were collected on a BD LSR-Fortessa X20 (BD Biosciences). The data were analysed using FlowJo Software, version 10.0.7 (Tree Star).

The target of series [4] is T2, BRD4 (Homo sapiens, UniProt O60885). The experiment in a line: Cellular thermal shift assay (CETSA) in Ramos cells. Type of series: cell-based. Also on record: endogenous in cells. To be noted: 20 μM, 40 min, vs DMSO. As to the method: as §1
Series [5] has as its target T2, BRD4. In words: Chromatin immunoprecipitation and sequencing analysis in OPM2 cells. Format: cell-based. Further details: endogenous in cells; host or cells: OPM2. Conditions: 250 nM, 2 h. The procedure: OPM2 cells (4×10^6) were treated with 250 nM of Cpd 010 or DMSO control for 2 h. Cells were cross-linked, and nuclei were lysed to achieve a mean DNA fragment size of 300-500 bp. Immunoprecipitation was performed using protein A/G magnetic beads for at least 12 h at 4° C. using the following antibodies: anti-BRD4 anti-H3K27Ac, anti-RNA polymerase II. Reverse crosslinking of DNA was performed, and DNA was purified using QIAquick PCR purification kit. The KAPA Hyper Prep Kit was used to generate libraries as per the manufacturer's instruction, which sequenced on the NextSeq (Illumina; 75 bp SE).

Bounds are passed on as bounds.

T1 sequence (P25440 whole entry): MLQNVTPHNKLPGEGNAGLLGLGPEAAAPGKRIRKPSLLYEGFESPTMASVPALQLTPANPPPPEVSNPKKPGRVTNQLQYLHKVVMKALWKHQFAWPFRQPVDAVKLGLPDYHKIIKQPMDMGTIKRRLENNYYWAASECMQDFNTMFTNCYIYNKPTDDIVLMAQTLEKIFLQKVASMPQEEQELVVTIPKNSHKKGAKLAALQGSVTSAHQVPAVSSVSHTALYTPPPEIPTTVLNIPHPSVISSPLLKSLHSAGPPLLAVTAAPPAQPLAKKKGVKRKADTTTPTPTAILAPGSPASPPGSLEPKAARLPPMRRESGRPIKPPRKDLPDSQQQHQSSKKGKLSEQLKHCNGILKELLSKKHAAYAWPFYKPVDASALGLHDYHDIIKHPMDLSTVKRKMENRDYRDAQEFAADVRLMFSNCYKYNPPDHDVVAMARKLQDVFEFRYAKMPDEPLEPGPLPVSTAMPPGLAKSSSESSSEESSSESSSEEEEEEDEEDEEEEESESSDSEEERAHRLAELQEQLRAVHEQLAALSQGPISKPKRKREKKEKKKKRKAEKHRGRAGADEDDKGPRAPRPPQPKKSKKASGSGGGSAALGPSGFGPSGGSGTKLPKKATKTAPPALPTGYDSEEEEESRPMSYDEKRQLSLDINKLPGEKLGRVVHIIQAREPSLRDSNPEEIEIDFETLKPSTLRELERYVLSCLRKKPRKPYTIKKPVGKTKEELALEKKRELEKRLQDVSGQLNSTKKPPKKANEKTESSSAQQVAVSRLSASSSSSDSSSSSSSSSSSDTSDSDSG

As for `CC(=O)N1c2ccc(-c3ccc(CNC(=O)c4cn5cc(-c6cnc(N)nc6)nc(N6CCOCC6)c5n4)cc3)cc2CC[C@@H]1C` [Cpd 010, (S)-N-(4-(1-acetyl-2-methyl-1,2,3,4-tetrahydroquinolin-6-yl)benzyl)-6-(2-aminopyrimidin-5-yl)-8-morpholinoimidazo[1,2-a]pyrazine-2-carboxamide], in the series with OPM2 cells [1], the GI50 – broadly, the concentration at which growth is held to half of that of the control – was no more than 100 nM. The “clearance of BRD2 protein with increasing temperature” value at BRD2 is listed as “delayed clearance”. In addition, the “MYC mRNA level” value in the series with MYC gene is recorded as “significant decrease in MYC mRNA level”. Moreover, in the series with OPM2 cells [2], the induction of apoptosis result is “even more enhanced apoptosis compared to the combination of two drugs together”. Moreover, the “spleen and body weight” value in series [3] (50 mg/kg) was “no changes in spleen and body weight”. For the same molecule, in series [3] (50 mg/kg, day 8), the “FBE at day 8” value is given as “moderate thrombocytopenia”. The “FBE on day 15” value in series [3] (50 mg/kg, day 15) is “recovered to the normal level”. Also, the MTD (as a rule, the highest dose tested that stayed within the study's limit of toxicity) at 5 day in series [3] (B6.SJL-Ptprc<a>Pepc<b>/BoyJ (B6.CD45.1), mouse, in vivo, ip, non-tumour bearing female mice, 5 day intraperitoneal injection) is 50 mg/kg. The curative response in the series with Eμ-Myc lymphoma cells worked out at 90%. Further, the survival result with Eμ-Myc lymphoma cells (p<0.0001) was “statistically significant survival benefit”. Further, the “clearance of BRD4 protein with increasing temperature” value on BRD4 [4] is listed as “delayed clearance”. On BRD4 [5], the “BRD4 and RNA Pol II at MYC locus” value was “significant reduction in BRD4 and RNA Pol II”; the “displacement of BRD4 from chromatin” value is recorded as “robust displace ment of BRD4”.
